Data set [1] is described as follows: Catalysis of O2.^− dismutation by pulse radiolysis. The class given is biochemical. The settings on record: for log kcat for O2^− dismutation: pulse radiolysis, pH 7.8, (22 ± 1) °C, kcat ±30%. How it is done:
Catalysis of O2.^− dismutation. The catalytic rate constants for the O2.^− dismutation were determined by pulse radiolysis in 0.05 M phosphate buffer (pH 7.8) at (22±1)° C. as previously described (Batinic-Haberle et al, Inorg. Chem. 40:726 (2001)). In the present study 10 mM formate was used as a scavenger for H. atoms and .OH radicals, which leads first to production of CO2.^− radicals and then to O2.^− radicals. This system is known to lead to conversion of all primary radicals of water radiolysis into O2.^−.
Catalysis of O2.^− dismutation. Pulse radiolysis was used to assess the SOD-like activities of the Mn porphyrins studied. The initial concentration of O2.^− produced by the pulse was about 27 μM, and the concentration of the Mn porphyrin was between 0.5 and 5 μM. The dismutation of O2.^− was followed at 280 nm. The catalytic rate constant was determined from the linear dependence of kobs upon the concentration of the catalyst (Batinic-Haberle et al, Inorg. Chem. 40:726 (2001)). All the new compounds have high O2.^− dismuting ability. The magnitude of the catalysis is due to the interplay of the electron-withdrawing effects of quaternized ortho pyridyl or di-ortho imidazolyl groups, favorable electrostatics, and the solvation of the metal site.

A short description of data set [2]: Thin-layer chromatography on silica gel (retention factor Rf, lipophilicity). Type of data set: physicochemical. The conditions noted are these: silica gel TLC, KNO3-saturated H2O/H2O/acetonitrile = 1/1/8; for Rf (compound path/solvent path), metal-free porphyrin (in parenthesis): metal-free ligand of the named Mn porphyrin. How it is done:
Uv/vis spectra of porphyrin ligands and their Mn complexes were taken on a Shimadzu UV-2501-PC spectrophotometer at 25° C. Thin-layer chromatography of ligands and Mn complexes was done using silica gel plates with KNO3satH2O/H2O/acetonitrile=1/1/8.
Thin-layer chromatography. All new methoxyporphyrins are more lipophilic than MnTE-2-PyP^5+ and MnTDE-2-ImP^5+.

A short description of data set [3]: Oxidative degradation in the presence of ascorbic acid under aerobic conditions. The settings on record: pH 7.8 (0.05 M tris buffer). Type of data set: physicochemical. The gist of the method: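 Mn porphyrins exposed to ascorbic acid under aerobic conditions; percentage of porphyrin degraded within 2 hours recorded.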
Data set [4] deals with SOD-deficient JI132 E. coli. The data set can be described thus: Aerobic growth of SOD-deficient E. coli. Type of data set: cell-based. The settings on record: for aerobic growth of SOD-deficient E. coli: 5AA minimal medium. In outline:
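Strains were AB1157 and its sodA sodB mutant JI132, precultured overnight in M9CA at 37 °C, then diluted to 3×10^7 cells/mL in M9CA or, after washing, in 5AA minimal medium. Mn porphyrins at 0.1 to 30 μM were present during aerobic shaking at 37 °C. Growth rate was followed by turbidity at 700 nm.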

The nature of data set [5]: Kinetic salt effect on O2.^− dismutation by cytochrome c assay. Type of data set: biochemical. The settings on record: 0.05 M phosphate buffer, pH 7.8, 0-0.4 M NaCl. How it is done: Kinetic salt effect. The dependence of the catalytic rate constant for the O2.^− dismutation upon ionic strength was determined by cytochrome c assay (McCord and Fridovich, J. Biol. Chem. 244:6049 (1969)) in 0.05 M phosphate buffer, pH 7.8 with NaCl ranging from 0 to 0.4 M. In doing this, the effect of ionic strength on the rate of the O2.^−/cytochrome c reaction was corrected for.
Kinetic salt effect. The effect of the ionic strength (μ) on the catalytic rate constant was assessed using eq which is based on Debye-Huckel relation (Hambright et al, J. Porphyrins Phthalocyanines 7:139-146 (2003)) for the effect of the ionic strength of the solution on the activity coefficient of an ion. log k=log kref+2AzAzBμ^1/2/(1+μ^1/2) The k is the rate constant at any given ionic strength, while kref is the rate constant at μ=0. The A is a collection of physical constants with a value of 0.509 and zA and zB are the charges of the reacting species. The equation predicts a linear plot of log k vs μ^1/2/(1+μ^1/2). Eq assumes a coefficient of 1.0 (βai) for μ^1/2 in the denominator, i.e., the distance of the closest approach, ai to be 3 A and β is a physical constant, […]. It is doubtful whether great significance can be attributed to the ai, thus to the product zAzB (Hambright et al, J. Porphyrins Phthalocyanines 7:139-146 (2003)), especially so in the light of the bulkiness, high charge and solvation shell of the metalloporphyrins. Accounting for the mono- and diprotonated phosphates as the major species at pH 7.8 (pKa=7.2), and the concentration of the NaCl, the ionic strength was calculated using equation μ=½ Σ mizi^2 where mi is the molality and zi the charge of the given ion.
The slopes of the plots are −6.48 (MnTE-2-PyP^5+), −7.02 (MnTMOE-2-PyP^5+), −7.38 (MnTDMOE-2-ImP^5+), and −4.15 (MnTnBu-2-PyP^5+). As expected (Hambright et al, J. Porphyrins Phthalocyanines 7:139-146 (2003)), when the reactants are ions of opposite charges, the higher the ionic strength of the solution the lower the rate constants, i.e. the slopes are negative. The slopes of the plots indicate clearly the impact of the local dielectric constant on the kcat. The kcat of the most lipophilic compound, MnTnBu-2-PyP^5+ is 40% less sensitive to the changes in ionic strength of the solution than is the kcat of its methoxyethyl analogue, MnTMOE-2-PyP^5+.

Results on two compounds are retold here after patent US8183364B2, “Substituted porphyrins” (Duke University, priority 2004, dated 2012).

Take `COCCn1cc[n+](CCOC)c1-c1c2nc(c(-c3n(CCOC)cc[n+]3CCOC)c3ccc([n-]3)c(-c3n(CCOC)cc[n+]3CCOC)c3nc(c(-c4n(CCOC)cc[n+]4CCOC)c4ccc1[n-]4)C=C3)C=C2.[Mn+3]` [MnTDMOE-2-ImP^5+, Mn(III) tetrakis 5,10,15,20-tetrakis[N,N′-di(2-methoxyethyl)imidazolium-2-yl]porphyrin]: the “log kcat for O2^− dismutation” value in data set [1] amounted to 7.59. Besides, in data set [2], the “Rf (compound path/solvent path), metal-free porphyrin (in parenthesis)” value is listed as 0.24 and the “Rf (compound path/solvent path), Mn complex” value came to 0.21. For the same compound, in data set [3], the “degradation within 2 hours” value came to 2%. Besides, the “aerobic growth of SOD-deficient E. coli” value in data set [4] (3 μM) is given as “the most effective methoxyethyl porphyrin”. Also, the “aerobic growth of SOD-deficient E. coli” value in data set [4] (25 μM) is “not far behind”. The “protection of SOD-deficient E. coli” value in data set [4] (M9CA medium, 3 μM) is “the most effective (next to n-butyl and n-hexyl)”. In data set [4] (≦3 μM levels (FIG. 10: 5AA minimal medium)), the “protection of E. coli from oxidative stress” value is listed as “the most protective”. For the same compound, the “slope of log kcat vs μ^1/2/(1+μ^1/2)” value in data set [5] is on record as −7.38.
`COCC[n+]1ccccc1-c1c2nc(c(-c3cccc[n+]3CCOC)c3ccc([n-]3)c(-c3cccc[n+]3CCOC)c3nc(c(-c4cccc[n+]4CCOC)c4ccc1[n-]4)C=C3)C=C2.[Mn+3]` [MnTMOE-2-PyP^5+, Mn(III) tetrakis 5,10,15,20-tetrakis[N-(2-methoxyethyl)pyridinium-2-yl]porphyrin]: in data set [1], the “log kcat for O2^− dismutation” value worked out at 8.04. The “SOD-like activity relative to MnTE-2-PyP^5+” value in data set [1] (vs MnTE-2-PyP^5+) is recorded as “two-fold higher”. Also, the “kcat higher than MnTnBu-2-PyP^5+” value in data set [1] (vs MnTnBu-2-PyP^5+) is 6 fold. In addition, in data set [2], the “Rf (compound path/solvent path), metal-free porphyrin (in parenthesis)” value is 0.18 and the “Rf (compound path/solvent path), Mn complex” value was determined as 0.16. Also, in data set [3], the “degradation within 2 hours” value is 24%. Besides, in data set [4] (25 μM), the “aerobic growth of SOD-deficient E. coli” value is listed as “not far behind”. In addition, in data set [5], the “slope of log kcat vs μ^1/2/(1+μ^1/2)” value is on record as −7.02.
